In patent US10828350B1, “Topical and orally administered protease inhibitors and bacterial vectors for the treatment of disorders and methods of treatment” (priority 2014, dated 2020):

B1: α-2-macroglobulin (protein, UniProt P01023 24-1474, looked up)
Alpha-2-macroglobulin: SVSGKPQYMVLVPSLLHTETTEKGCVLLSYLNETVTVSASLESVRGNRSLFTDLEAENDVLHCVAFAVPKSSSNEEVMFLTVQVKGPTQEFKKRTTVMVKNEDSLVFVQTDKSIYKPGQTVKFRVVSMDENFHPLNELIPLVYIQDPKGNRIAQWQSFQLEGGLKQFSFPLSSEPFQGSYKVVVQKKSGGRTEHPFTVEEFVLPKFEVQVTVPKIITILEEEMNVSVCGLYTYGKPVPGHVTVSICRKYSDASDCHGEDSQAFCEKFSGQLNSHGCFYQQVKTKVFQLKRKEYEMKLHTEAQIQEEGTVVELTGRQSSEITRTITKLSFVKVDSHFRQGIPFFGQVRLVDGKGVPIPNKVIFIRGNEANYYSNATTDEHGLVQFSINTTNVMGTSLTVRVNYKDRSPCYGYQWVSEEHEEAHHTAYLVFSPSKSFVHLEPMSHELPCGHTQTVQAHYILNGGTLLGLKKLSFYYLIMAKGGIVRTGTHGLLVKQEDMKGHFSISIPVKSDIAPVARLLIYAVLPTGDVIGDSAKYDVENCLANKVDLSFSPSQSLPASHAHLRVTAAPQSVCALRAVDQSVLLMKPDAELSASSVYNLLPEKDLTGFPGPLNDQDNEDCINRHNVYINGITYTPVSSTNEKDMYSFLEDMGLKAFTNSKIRKPKMCPQLQQYEMHGPEGLRVGFYESDVMGRGHARLVHVEEPHTETVRKYFPETWIWDLVVVNSAGVAEVGVTVPDTITEWKAGAFCLSEDAGLGISSTASLRAFQPFFVELTMPYSVIRGEAFTLKATVLNYLPKCIRVSVQLEASPAFLAVPVEKEQAPHCICANGRQTVSWAVTPKSLGNVNFTVSAEALESQELCGTEVPSVPEHGRKDTVIKPLLVEPEGLEKETTFNSLLCPSGGEVSEELSLKLPPNVVEESARASVSVLGDILGSAMQNTQNLLQMPYGCGEQNMVLFAPNIYVLDYLNETQQLTPEIKSKAIGYLNTGYQRQLNYKHYDGSYSTFGERYGRNQGNTWLTAFVLKTFAQARAYIFIDEAHITQALIWLSQRQKDNGCFRSSGSLLNNAIKGGVEDEVTLSAYITIALLEIPLTVTHPVVRNALFCLESAWKTAQEGDHGSHVYTKALLAYAFALAGNQDKRKEVLKSLNEEAVKKDNSVHWERPQKPKAPVGHFYEPQAPSAEVEMTSYVLLAYLTAQPAPTSEDLTSATNIVKWITKQQNAQGGFSSTQDTVVALHALSKYGAATFTRTGKAAQVTIQSSGTFSSKFQVDNNNRLLLQQVSLPELPGEYSMKVTGEGCVYLQTSLKYNILPEKEEFPFALGVQTLPQTCDEPKAHTSFQISLSVSYTGSRSASNMAIVDVKMVSGFIPLKPTVKMLERSNHVSRTEVSSNHVLIYLDKVSNQTLSLFFTVLQDVPVRDLKPAIVKVYDYYETDEFAIAEYNAPCSKDLGNA

System: trypsin
Test: Petri plate assay detecting zones of protease protection by protease inhibitors or bacterial strains after flooding with trypsin
Type: biochemical
Settings: for relative size of zone of inhibition (diffusion zone): casein plates, to a lesser degree gelatin plates, compared among leupeptin, aprotinin and α-2-macroglobulin
From the text: Because the protocol is destructive to the plate assayed, a duplicate or replica plate is generated and retained for identification and further analysis of the strains using methods known to those skilled in the arts. The initial step is the exposure of the protease detection plate to a protease inhibitor or bacterial growth. Either commercially available protease inhibitor peptides or growth of bacterial strains on the protease detection plates can be detected. […] The bacterial strains Photorabdus (Xenorhabdus) luminescens strain Hm primary and secondary forms where the secondary and not the primary form is known to secrete a protease inhibitor and the other strains are negative controls (Wee et al. 2000, A new broad-spectrum protease inhibitor from the entomopathogenic bacterium Photorhabdus luminescens. Microbiology 146: 3141-3147), Citrobacter freundii (ATCC #33128), Staphylococcus aureus, S. epidermidis and Enterococcusfaecalis are allowed to grow two days at 30° C. in air.
The base media can be any microbiological media designed to facilitate the growth of cultivable microorganism; different media can be used to favor different strains as appropriate (Kreig, 1981, Chapter 8, Enrichment and Isolation, p. 112-142 in Manual of Methods for General Bacteriology, Gerhardt et al., eds, American Society for Microbiology, Washington, D.C.). Variations on the type of protease being targeted, the protease substrate and cognate inhibitors are shown in Table 1 and used as a guide in the modification of media. A casein base media based on that of Vijayaraghavan and Vincent (2013, A simple method for the detection of protease activity on agar plates using bromochresol green dye, J. Biochem. Tech. 4: 628-630), which contained 5 grams of peptone, 1.5 grams of yeast extract, 1.5 grams of sodium chloride per liter with, except that the casein 0.5% is used (instead of 1.0%) and dissolved as described by Montville (1983, Dual-substrate plate diffusion assay for proteases, Appl Environ Microbiol 45: 200-204) using 0.02 N NaOH. When bromochresol green (BCG) is added directly to the media, 0.0015% is used. BCG preincorporated into the media as well as post incubation addition of a BCG dye reagent containing 0.028% BCG dissolved in 0.56% (w/v) succinic acid, 0.1% (w/v) NaOH (Vijayaraghavan and Vincent; 2013) with 0.6% Brij-35 and then acidified to pH 4.2 can also be used following exposure to a protease inhibitor or bacterial growth and subsequent exposure to a protease. After staining and then destaining in water the by completely removing the agar from the lower plastic, the plates are observed for the presence and absence of protein. Ponseau S staining by flooding the plate with 5 ml of the stain containing 0.1% Ponseau S (PS; Sigma, St. Louis, Mo.) and 5% acetic acid in water for 1-2 hrs and then marking the agar with a 23 ga syringe needle dipped in India ink at a corresponding register marked on the plastic petri plate, removing the agar from the plate and destaining overnight in water before observing them and is highly sensitive.
A gelatin based media (Medina and Baresi 2007, Rapid identification of gelatin and casein hydrolysis using TCA, J Microbiol Meth 69: 391-393) which uses 40 grams per liter of tryptic soy agar powder without glucose (Becton Dickinson, Sparks, Md.) modified to contain 8 g of gelatin (instead of 16 g) per liter may be preferable for certain organisms depending upon their growth requirements and is used as is appropriate. Approximately 5 ml of 20% trichloroacetic acid (TCA; Thermo Fisher, Waltham, Mass.) was used for protein precipitation per petri plate. This media can also be combined with preincorporated BCG, or post-incubation BCG dye reagent or Ponseau S, each as described above for the casein plates. […]

[1] = BCG-containing plates further stained with PS, 0.625 mg/ml trypsin for casein, 0.0625 mg/ml for gelatin (FIG. 2B)
[2] = casein plates with preincorporated BCG, before PS staining (FIG. 2A)

| Molecule | visualization of zone of protease protection [1] | visualization of zone of protease protection [2] | relative size of zone of inhibition (diffusion zone) | diffusion distance of inhibitor on plate (casein BCG plate, PS stained (FIGS. 5A and 5B)) |
| --- | --- | --- | --- | --- |
| CC(C)C[C@H](NC(=O)[C@@H](O)[C@H](N)Cc1ccccc1)C(=O)O [bestatin] | no staining | – | – | – |
| aprotinin [Aprotonin] | able to visualize | faintly visualize | – | – |
| CC(=O)N[C@@H](CC(C)C)C(=O)N[C@@H](CC(C)C)C(=O)N[C@H](C=O)CCCNC(=N)N [Leupeptin, leupeptin] | able to visualize | – | notably larger | – |
| B1 | able to visualize | faintly visualize | smallest diffusion zone | diffused only a short distance |
